From PubChem BioAssay (NCI)
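Following 48 hours of exposure in 96-well plates, responses at five concentrations were used to interpolate endpoints linearly. TGI: total growth inhibition.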

Assays:
Assay in all cases: NCI-60 cell line screen, 48 h
[1] = tested on: TK-10 renal
[2] = tested on: NCI/ADR-RES ovarian
[3] = tested on: A549 NSCLC
[4] = tested on: ACHN renal
[5] = tested on: OVCAR-3 ovarian
[6] = tested on: HT29 colon
[7] = tested on: OVCAR-5 ovarian
[8] = tested on: KM12 colon
[9] = tested on: HCT-15 colon
[10] = tested on: SR leukemia
[11] = tested on: NCI-H522 lung
[12] = tested on: HL-60(TB) leukemia
[13] = tested on: SK-MEL-28 melanoma
[14] = tested on: HCT-116 colon
[15] = tested on: RPMI-8226 leukemia
[16] = tested on: RXF 393 renal
[17] = tested on: SNB-75 CNS
[18] = tested on: DU-145 prostate
[19] = tested on: BT-549 breast
[20] = tested on: MDA-MB-231 breast
[21] = tested on: K-562 leukemia
[22] = tested on: U251 CNS
[23] = tested on: M14 melanoma
[24] = tested on: SK-OV-3 ovarian
[25] = tested on: LOX IMVI melanoma
[26] = tested on: UO-31 renal
[27] = tested on: SF-295 CNS
[28] = tested on: SNB-19 CNS
[29] = tested on: T-47D breast
[30] = tested on: SF-268 CNS
[31] = tested on: CAKI-1 renal
[32] = tested on: SF-539 CNS
[33] = tested on: PC-3 prostate
[34] = tested on: CCRF-CEM leukemia
[35] = tested on: HCC-2998 colon
[36] = tested on: COLO 205 colon
[37] = tested on: MDA-N
[38] = tested on: SN12C renal
[39] = tested on: MOLT-4 leukemia
[40] = tested on: NCI-H23 lung
[41] = tested on: MALME-3M melanoma
[42] = tested on: HOP-92 NSCLC
[43] = tested on: UACC-62 melanoma
[44] = tested on: HS 578T breast
[45] = tested on: 786-0 renal
[46] = tested on: SW-620 colon
[47] = tested on: SK-MEL-2 melanoma
[48] = tested on: NCI-H460 lung
[49] = tested on: NCI-H226 lung
[50] = tested on: IGROV1 ovarian
[51] = tested on: SK-MEL-5 melanoma
[52] = tested on: HOP-62 NSCLC
[53] = tested on: OVCAR-4 ovarian
[54] = tested on: MCF7 breast
[55] = tested on: A498 renal
[56] = tested on: UACC-257 melanoma
[57] = tested on: MDA-MB-435
[58] = tested on: OVCAR-8 ovarian
[59] = tested on: EKVX NSCLC

With Cc1ccc2nc3n(c2c1)C(c1c(F)cccc1F)SC3 (stereo unspecified) the TGI [1] was over 100 µM, the TGI [2] was over 100 µM and the TGI [3] was over 100 µM. The TGI [4] was over 100 µM, the TGI [5] was over 100 µM and the TGI [6] was over 100 µM. For the same compound, the TGI [7] was over 100 µM, the TGI [8] was over 100 µM and the TGI [9] was over 100 µM. For the same compound, the TGI [10] was over 100 µM, the TGI [11] was over 100 µM and the TGI [12] was over 100 µM. The TGI [13] was over 100 µM, the TGI [14] was over 100 µM and the TGI [15] was over 100 µM. It also gave a TGI [16] of over 100 µM, a TGI [17] of over 100 µM and a TGI [18] of over 100 µM. It also gave a TGI [19] of over 100 µM, a TGI [20] of over 100 µM and a TGI [21] of over 100 µM. For the same compound, the TGI [22] was over 100 µM, the TGI [23] was over 100 µM and the TGI [24] was over 100 µM. It also gave a TGI [25] of over 100 µM, a TGI [26] of over 100 µM and a TGI [27] of over 100 µM. For the same compound, the TGI [28] was over 100 µM, the TGI [29] was over 100 µM and the TGI [30] was over 100 µM. For the same compound, the TGI [31] was over 100 µM, the TGI [32] was over 100 µM and the TGI [33] was over 100 µM. It also gave a TGI [34] of over 100 µM, a TGI [35] of over 100 µM and a TGI [36] of over 100 µM. The TGI [37] was over 100 µM, the TGI [38] was over 100 µM and the TGI [39] was over 100 µM. For the same compound, the TGI [40] was over 100 µM, the TGI [41] was over 100 µM and the TGI [42] was over 100 µM. For the same compound, the TGI [43] was over 100 µM, the TGI [44] was over 100 µM and the TGI [45] was over 100 µM. The TGI [46] was over 100 µM, the TGI [47] was over 100 µM and the TGI [48] was over 100 µM. The TGI [49] was over 100 µM, the TGI [50] was over 100 µM and the TGI [51] was over 100 µM. For the same compound, the TGI [52] was over 100 µM, the TGI [53] was over 100 µM and the TGI [54] was over 100 µM. The TGI [55] was over 100 µM and the TGI [56] was over 100 µM.
Work on Cc1nc2c(=O)n(C)c(=O)n(C)c2o1 yielded a TGI [1] of over 100 µM, a TGI [2] of over 100 µM and a TGI [3] of over 100 µM. It also gave a TGI [4] of over 100 µM, a TGI [5] of over 100 µM and a TGI [6] of over 100 µM. It also gave a TGI [7] of over 100 µM, a TGI [57] of over 100 µM and a TGI [8] of over 100 µM. For the same compound, the TGI [9] was over 100 µM, the TGI [10] was over 100 µM and the TGI [11] was over 100 µM. It also gave a TGI [14] of over 100 µM, a TGI [15] of over 100 µM and a TGI [16] of over 100 µM. It also gave a TGI [17] of over 100 µM, a TGI [19] of over 100 µM and a TGI [20] of over 100 µM. The TGI [21] was over 100 µM, the TGI [22] was over 100 µM and the TGI [23] was over 100 µM. For the same compound, the TGI [24] was over 100 µM, the TGI [25] was over 100 µM and the TGI [26] was over 100 µM. For the same compound, the TGI [27] was over 100 µM, the TGI [28] was over 100 µM and the TGI [29] was over 100 µM. The TGI [30] was over 100 µM, the TGI [31] was over 100 µM and the TGI [32] was over 100 µM. It also gave a TGI [33] of over 100 µM, a TGI [34] of over 100 µM and a TGI [35] of over 100 µM. For the same compound, the TGI [36] was over 100 µM, the TGI [58] was over 100 µM and the TGI [37] was over 100 µM. The TGI [38] was over 100 µM, the TGI [39] was over 100 µM and the TGI [59] was over 100 µM. It also gave a TGI [40] of over 100 µM, a TGI [41] of over 100 µM and a TGI [42] of over 100 µM. It also gave a TGI [43] of over 100 µM, a TGI [44] of over 100 µM and a TGI [45] of over 100 µM. The TGI [46] was over 100 µM, the TGI [47] was over 100 µM and the TGI [48] was over 100 µM. The TGI [49] was over 100 µM, the TGI [50] was over 100 µM and the TGI [51] was over 100 µM. For the same compound, the TGI [52] was over 100 µM, the TGI [53] was over 100 µM and the TGI [55] was over 100 µM. For the same compound, the TGI [56] was over 100 µM.
With Fc1cc(-c2cc(-c3ccccc3)n[nH]2)c(Cl)cc1Cl the TGI [1] was over 100 µM, the TGI [2] was over 100 µM and the TGI [3] was over 100 µM. It also gave a TGI [4] of over 100 µM, a TGI [5] of over 100 µM and a TGI [6] of over 100 µM. The TGI [7] was over 100 µM, the TGI [57] was over 100 µM and the TGI [8] was over 100 µM. For the same compound, the TGI [9] was over 100 µM, the TGI [10] was over 100 µM and the TGI [11] was over 100 µM. It also gave a TGI [12] of over 100 µM, a TGI [13] of over 100 µM and a TGI [14] of over 100 µM. For the same compound, the TGI [15] was over 100 µM, the TGI [16] was over 100 µM and the TGI [17] was over 100 µM. It also gave a TGI [18] of over 100 µM, a TGI [19] of over 100 µM and a TGI [20] of over 100 µM. For the same compound, the TGI [21] was 23.2 µM, the TGI [22] was over 100 µM and the TGI [23] was over 100 µM. For the same compound, the TGI [24] was over 100 µM, the TGI [25] was over 100 µM and the TGI [26] was over 100 µM. The TGI [27] was over 100 µM, the TGI [28] was over 100 µM and the TGI [29] was over 100 µM. For the same compound, the TGI [30] was over 100 µM, the TGI [31] was over 100 µM and the TGI [32] was 60.7 µM. The TGI [33] was over 100 µM, the TGI [34] was over 100 µM and the TGI [36] was over 100 µM. For the same compound, the TGI [58] was over 100 µM, the TGI [37] was over 100 µM and the TGI [38] was over 100 µM. It also gave a TGI [39] of 57.6 µM, a TGI [59] of over 100 µM and a TGI [40] of over 100 µM. For the same compound, the TGI [41] was over 100 µM, the TGI [42] was over 100 µM and the TGI [44] was over 100 µM. For the same compound, the TGI [45] was over 100 µM, the TGI [46] was over 100 µM and the TGI [47] was over 100 µM. For the same compound, the TGI [48] was over 100 µM, the TGI [49] was over 100 µM and the TGI [50] was over 100 µM. It also gave a TGI [51] of over 100 µM, a TGI [52] of over 100 µM and a TGI [53] of over 100 µM. For the same compound, the TGI [56] was over 100 µM.
